Measurements taken from patent publication US20050261273A1, “Substituted urea and carbamate, phenacyl-2-hydroxy-3-diaminoalkane, and benzamide-2-hydroxy-3-diaminoalkane aspartyl-protease inhibitors” (priority 2004, published 2005).

molecular target: cathepsin D (catD) versus beta-secretase (BACE) (Homo sapiens, UniProt P07339); assay: CatD/BACE selectivity (ratio of IC50 values); type: biochemical; details: each value is an average of four experimental runs; multiple values = more than one experiment
Protocol: (§1) Investigation of potential beta-secretase inhibitors produced compounds with increased selectivity for beta-secretase over other aspartyl proteases such as cathepsin D (catD), cathepsin E (catE), Human Immunodeficiency Viral (HIV) protease, and renin. Selectivity was calculated as a ratio of inhibition (IC50) values in which the inhibition of beta-secretase was compared to the inhibition of other aspartyl proteases.
The compounds of formula (I) can be selective for beta-secretase versus catD.
(§2) In the following examples, each value is an average of four experimental runs and multiple values for one compoundd indicate that more than one experiment was conducted.

cathepsin D (catD) versus beta-secretase (BACE), sequence (P07339 65-412): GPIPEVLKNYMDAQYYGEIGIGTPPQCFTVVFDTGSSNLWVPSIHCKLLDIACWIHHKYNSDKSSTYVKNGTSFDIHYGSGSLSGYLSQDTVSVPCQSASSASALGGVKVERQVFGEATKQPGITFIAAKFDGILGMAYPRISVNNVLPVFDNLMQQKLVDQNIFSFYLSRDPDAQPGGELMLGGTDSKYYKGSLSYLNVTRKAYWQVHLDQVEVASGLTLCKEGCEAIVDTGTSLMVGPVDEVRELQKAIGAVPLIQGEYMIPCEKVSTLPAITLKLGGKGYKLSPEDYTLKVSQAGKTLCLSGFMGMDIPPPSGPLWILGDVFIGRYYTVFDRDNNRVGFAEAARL

Question: How did the “IC50 CatD/IC50 BACE” value turn out when `CC(C)(C)c1cccc(C2(NCC(O)C(Cc3cc(F)cc(F)c3)NC(=O)CCCC(=O)O)CCCCC2)c1` (stereo not drawn) [Example 325A-4] was run?
Answer: 1.9

Question: How did the “IC50 CatD/IC50 BACE” value turn out when `CC(C)(C)c1cccc(C2(NCC(O)C(Cc3cc(F)cc(F)c3)NC(=O)c3csc(NS(C)(=O)=O)n3)CCCCC2)c1` (stereo not drawn) [Example 325A-6] was run?
Answer: 5.0

Question: With `CC(C)(CCC(=O)NC(Cc1cc(F)cc(F)c1)C(O)CNC1(c2cccc(C(C)(C)C)c2)CCCCC1)C(=O)O` (stereo not drawn) [Example 325A-5] as the molecule, how does the “IC50 CatD/IC50 BACE” value read?
Answer: 1.7

Question: `CC(C)(C)c1cccc(C2(NCC(O)C(Cc3cc(F)cc(F)c3)NC(=O)COCC(=O)O)CCCCC2)c1` (stereo not drawn) [Example 325A-3] was tested. Which “IC50 CatD/IC50 BACE” value did it give?
Answer: 2.0

Question: Which “IC50 CatD/IC50 BACE” value does the source give for `CN(c1cccc(C(=O)NC(Cc2cc(F)cc(F)c2)C(O)CNC2(c3cccc(C(C)(C)C)c3)CCCCC2)c1)S(C)(=O)=O` (stereo not drawn) [Example 325A-2] here?
Answer: 3.1

molecular target: T1, cathepsin E (catE) versus beta-secretase (BACE) (Homo sapiens, UniProt P14091); assay: CatE/BACE selectivity (ratio of IC50 values); type: biochemical; details: each value is an average of four experimental runs; multiple values = more than one experiment
T1 sequence (P14091 54-396): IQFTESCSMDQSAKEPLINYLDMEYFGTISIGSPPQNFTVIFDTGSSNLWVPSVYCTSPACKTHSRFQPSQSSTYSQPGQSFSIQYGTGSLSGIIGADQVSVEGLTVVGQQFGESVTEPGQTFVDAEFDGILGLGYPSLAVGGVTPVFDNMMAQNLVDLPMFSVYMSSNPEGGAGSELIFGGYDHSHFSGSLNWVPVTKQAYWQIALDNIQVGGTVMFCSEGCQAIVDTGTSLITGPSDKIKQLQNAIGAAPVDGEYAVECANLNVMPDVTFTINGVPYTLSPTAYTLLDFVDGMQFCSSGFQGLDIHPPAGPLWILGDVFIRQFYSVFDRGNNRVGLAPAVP
Protocol: as §1
The compounds of formula (I) can be selective for beta-secretase versus catE. […] Selectivity is reported as the ratio of IC50(catE):IC50(BACE).
as §2

Question: How did the “IC50 CatE/IC50 BACE” value turn out when `CC(C)(C)c1cccc(C2(NCC(O)C(Cc3cc(F)cc(F)c3)NC(=O)COCC(=O)O)CCCCC2)c1` (stereo not drawn) [Example 325B-4] was run?
Answer: 3.2

Question: How did the “IC50 CatE/IC50 BACE” value turn out when `CC(C)(CCC(=O)NC(Cc1cc(F)cc(F)c1)C(O)CNC1(c2cccc(C(C)(C)C)c2)CCCCC1)C(=O)O` (stereo not drawn) [Example 325B-1] was run?
Answer: 8.3

Question: `CC(C)(C)c1cccc(C2(NCC(O)C(Cc3cc(F)cc(F)c3)NC(=O)c3csc(NS(C)(=O)=O)n3)CCCCC2)c1` (stereo not drawn) [Example 325B-5] was tested. Which “IC50 CatE/IC50 BACE” value did it give?
Answer: 1.2

Question: How did the “IC50 CatE/IC50 BACE” value turn out when `CC(C)(C)c1cccc(C2(NCC(O)C(Cc3cc(F)cc(F)c3)NC(=O)CCCC(=O)O)CCCCC2)c1` (stereo not drawn) [Example 325B-3] was run?
Answer: 3.4
